Reference: US11299715B2, “Use of iNOS inhibitors to increase viral yield in culture” (priority 2013, dated 2022)

System: d27-1/GFP HSV-1
Assay: Effect of valproic acid pretreatment on d27-1/GFP HSV-1 viral titer in V27 cells
Type: cell-based
Protocol: Valproic acid (Sigma-P4543) was dissolved to 1 M concentration in water. V27 cells were seeded into six well plates the day prior to infection at 6×10^5 cells/well. […] This was vortexed well and added to the wells. Plates were incubated for six hours, aspirated and infectious HSV-1 d27-1 stock added at MOI 0.15 (=cell seed density×0.15/pfu titer of HSV stock) per 1 ml of DMEM (no additives).
1 ml of infectious inoculum was added per well and incubated for 1-2 hours at 37° C., 5% CO2 incubator after which time 1.5 ml of DMEM-10% FBS was added. The plates were returned to the incubator for 70-74 hours. Free media was harvested, vortexed, and centrifuged at 1,100×g for 10 minutes at 4° C. Supernatant was transferred to a new dispensing tube, vortexed, and aliquoted. Stocks were frozen at −80° C.
V27 cells were seeded into six well plates the day prior to infection at 6×10^5 cells/well and the next day, different concentrations of VA were added to wells. Plates were incubated for 6 hrs, aspirated and ⅖ vol of media containing infectious HSV-1 d27-1 stock was added and incubated for 1-2 hours at 37° C., […] after which time ⅗ vol of DMEM 10% FBS media was added. The cultures were returned to the incubator and supernatant was harvested after 70-74 hours.

## CCCC(CCC)C(=O)O [VA, valproic acid]
VA 5 mM, 6 hrs pretreatment
  titer of d27-1/GFP HSV-1 compared to untreated control: slightly elevated
VA concentrations below and above 5 mM, pretreatment
  titer of d27-1/GFP HSV-1 compared to untreated control: inhibitory effect
